SMILES strings stand for the structures.

Data set [1] is described as follows: thermodynamic aqueous solubility measured in water.
A short description of data set [2]: stability in aqueous media. In kind it is physicochemical. Particulars: 0.2 mg/ml; for stability in aqueous media (in words): 50° C. and room temperature; for Stability in aqueous media (24 hrs at 50° C.) / Stability in aqueous media (24 hrs at room temperature): sodium salt in water, free acid in 1:1 water and acetonitrile; for Stability in aqueous media (24 hrs at 50° C.): amber vial. As to the method:
To measure the stability in aqueous media, the sodium salt was dissolved in water at a concentration of 0.2 mg/ml. Due to the very poor aqueous solubility of the free acid, the free acid was dissolved in a 1:1 mixture of water and acetonitrile at the same concentration of 0.2 mg/ml. Samples were kept at 50° C. in an amber vial and at room temperature in an amber vial as well as a clear vial.

Data set [3] in a line: intrinsic dissolution rate (US Pharmacopoeia, chapter 1087). In kind it is physicochemical. Here is the method: The intrinsic dissolution rate was measured by the procedure set out in the US Pharmacopoeia, chapter 1087.
Data set [4] is described as follows: XRPD after storage at elevated temperature and humidity (stability of polymorphic form). In kind it is physicochemical. As to the method: X-Ray Powder Diffraction (XRPD), Ion Chromatography (IC), Karl Fischer titration (KF), Thermogravimetric Analysis (TGA), Differential Scanning Calorimetry (DSC) and high performance liquid chromatography (HPLC) techniques referred to in the examples were carried out under the following conditions: XRPD diffractograms were collected on a Bruker D8 diffractometer using CuKα radiation (40 kV, 40 mA) and a θ-2θ goniometer fitted with a Ge monochromator. The incident beam passed through a 2.0 mm divergence slit followed by a 0.2 mm antiscatter slit and knife edge. The diffracted beam passed through an 8.0 mm receiving slit with 2.5° Soller slits followed by the Lynxeye Detector. The software used for data collection and analysis was Diffrac Plus XRD Commander and Diffrac Plus EVA respectively. Samples were run under ambient conditions as flat plate specimens using powder as received. The sample was prepared on a polished, zero-background (510) silicon wafer by gently pressing onto the flat surface or packed into a cut cavity.
The XRPD spectra shown in FIG. 1 were obtained directly after preparation of the product, after storage for 1 week and for 5 weeks at 40° C. and 75% relative humidity, and after storage for 1 week and for 5 weeks at 25° C. and 97% relative humidity.
The XRPD spectra shown in FIG. 3 were obtained directly after preparation of the product, after storage for 1 week at 40° C. and 75% relative humidity, and after storage for 1 week at 25° C. and 97% relative humidity.

Another data set is described as follows: physchem. Particulars: water, thermodynamic from solid.

A word on the Aqueous Solubility: it is the concentration that dissolves in the medium under given conditions. The low end stands for little dissolved substance, the high end for much dissolved substance. For orientation: solubility means the concentration that dissolves in the medium under given conditions. Consider `CC(C)n1ccc(S(=O)(=O)NC(=O)Nc2c3c(cc4c2CCC4)CCC3)n1` [Comparative Example 1, N-((1,2,3,5,6,7-hexahydro-s-indacen-4-yl)carbamoyl)-1-isopropyl-1H-pyrazole-3-sulfonamide free acid, reference compound], for which the “Aqueous Solubility” value in data set [1] (thermodynamic, in water) is less than 0.5 mg/mL. This compound registered a solubility in data set [1] (water, thermodynamic from solid) of less than 0.5 mg/mL. For the same compound, in data set [2], the “stability in aqueous media (in words)” value is listed as “unstable”, the “Stability in aqueous media (24 hrs at 50° C.)” value stood at 94% degradation and the “Stability in aqueous media (24 hrs at room temperature)” value was 37% degradation. For the same compound, in data set [3], the “Intrinsic dissolution rate (at pH 2)” value came to 4 μg/min · mm^2.
Take `CC(C)n1ccc(S(=O)(=O)NC(=O)Nc2c3c(cc4c2CCC4)CCC3)n1.O.[Na]` [Example 2, N-((1,2,3,5,6,7-hexahydro-s-indacen-4-yl)carbamoyl)-1-isopropyl-1H-pyrazole-3-sulfonamide monosodium monohydrate]: the “resulting pH of aqueous solution” value in data set [1] (in water at solubility of 81 mg/ml) worked out at 9.7. Further, in data set [4] (storage 1 week and 5 weeks at 40° C. and 75% relative humidity, and 1 week and 5 weeks at 25° C. and 97% relative humidity), the “stability with respect to conversion into other polymorphic forms (XRPD)” value was “shows stability with respect to conversion into other polymorphic forms”. For the same compound, in data set [2], the “stability in aqueous media (in words)” value was “stable in aqueous media”, the “Stability in aqueous media (24 hrs at 50° C.)” value is listed as 2.7% degradation and the “Stability in aqueous media (24 hrs at room temperature)” value is reported as “No significant”. Also, the “Intrinsic dissolution rate (at pH 2)” value in data set [3] is 10 μg/min · mm^2. The “intrinsic dissolution rate relative to that of the free acid” value in data set [3] (sodium salt versus free acid) was “at least twice as high”. Also, in “physchem”, the solubility came out at 81 mg/mL.
Regarding `CC(C)n1ccc(S(=O)(=O)NC(=O)Nc2c3c(cc4c2CCC4)CCC3)n1.[Na]` [Example 3, N-((1,2,3,5,6,7-hexahydro-s-indacen-4-yl)carbamoyl)-1-isopropyl-1H-pyrazole-3-sulfonamide monosodium anhydrate], in data set [4] (1 week at 25° C. and 97% relative humidity), the “polymorphic form stability on storage at elevated humidity (XRPD)” value is reported as “converts to the monosodium monohydrate (Form 1)”. Further, in data set [4] (1 week at 40° C. and 75% relative humidity), the “polymorphic form stability on storage at elevated temperature (XRPD)” value was “stable at elevated temperature”.

The values are drawn from patent publication US10973803B2, “Sodium salt of N-((1,2,3,5,6,7-hexahydro-s-indacen-4-yl)carbamoyl)-1-isopropyl-1H-pyrazole-3-sulfonamide” (INFLAZOME LIMITED, priority 2018, dated 2021).
